# Results published in patent US20210008088A1, “COMPOSITION FOR PREVENTING OR TREATING NON-ALCOHOLIC LIVER DISEASE OR INSULIN RESISTANCE COMPRISING GINSENOSIDE F2” (INTELLIGENT SYNTHETIC BIOLOGY CENTER, priority 2015, published 2021).
# Columns and labels:
# [1] = system: inflammatory cytokines (TNF-α, IL-1β, and IL-6); test: Expression of inflammatory cytokines in mouse fed with high fat diet; type: in vivo; details: mouse fed with high fat diet and ginsenoside F2 (FIG. 4)
# [2] = system: adipogenesis in the liver (SREBP1c, FAS, CB1R, NAPE-PLD); test: Analysis of liver tissues of high fat diet-fed mice (H&E, Oil-red O staining, triglyceride, protein and gene expression); type: in vivo, mouse
# Procedure: Hematoxylin and Eosin (H&E) staining was performed for the observation of the changes in the liver tissues, and the triglycerides in hepatocytes were stained via Oil-red O staining, and the results are shown under ×100 magnification (FIG. 2A). As a result, it was confirmed again that the lipid accumulation in hepatocytes was reduced.
# hepatic stellate cells = test: Expression of endocannabinoid synthase in hepatic stellate cells treated with TNF-α; type: cell-based; details: hepatic stellate cells after TNF-α; 10 μM, 20 μM, and 30 μM; 24 hours (FIG. 5)
# Procedure: After treating hepatic stellate cells with TNF-α, they were treated with ginsenoside F2 at concentrations of 10 μM, 20 μM, and 30 μM, and cultured for 24 hours. As a result of examining the difference in expression levels in the cultured hepatic stellate cells, it was confirmed that ginsenoside F2 inhibits the expression of DAGLα and DAGLβ, which are enzymes important for the synthesis of 2-AG, a kind of endocannabinoids, and that ginsenoside F2 inhibits the expression of NAPE-PLD and FAAH, which are factors associated with liver damage (FIG. 5).
# [3] = system: mouse model fed with high fat diet; test: Effect of alleviating fatty liver in mouse model fed with high fat diet; type: in vivo; details: 50 mg/kg orally five days a week for 12 weeks
# Procedure: The effect of ginsenoside F2 on alleviating fatty liver was confirmed using a mouse model fed with high fat diet. Eight-week-old male mouse (body weight; 25 g to 28 g) were orally fed with high fat diet and ginsenoside F2 (50 mg/kg) five days a week for a period of 12 weeks. […] From the results, it was confirmed that ginsenoside F2 has the effect of inhibiting fatty liver production in mice even when they were fed with high fat diet.
# glioblastoma = details: xenograft model in SD rats; Shin J Y et al. 2012; cited from earlier work
# [4] = system: mouse fed with high fat diet; test: Improvement in insulin sensitivity: blood glucose after glucose and insulin administration; type: in vivo; details: vs control group (FIG. 3)
# Procedure: An eleven-week-old mouse was administered with glucose and insulin and the blood glucose level was monitored in a time-dependent manner.
# [5] = system: breast cancer stem cells (CSCs); details: inducing apoptosis along with autophagy in breast cancer stem cells; Mai T T et al. 2012; cited from earlier work
# [6] = liver, high fat diet-fed mice (FIGS. 2C and 2D)
structure (smiles),measurement,setting,value
CC(C)=CCC[C@](C)(O[C@@H]1O[C@H](CO)[C@@H](O)[C@H](O)[C@H]1O)[C@H]1CC[C@]2(C)[C@@H]1[C@H](O)C[C@@H]1[C@@]3(C)CC[C@H](O[C@@H]4O[C@H](CO)[C@@H](O)[C@H](O)[C@H]4O)C(C)(C)[C@@H]3CC[C@]12C [ginsenoside F2],expression of IL-1β,[1],inhibit
same,expression of IL-6,[1],inhibit
same,expression of TNF-α,[1],inhibit
same,lipid accumulation in hepatocytes,"[2]; H&E and Oil-red O staining, ×100 magnification (FIG. 2A)",reduced
same,triglyceride level in the liver,[2]; high fat diet-fed mice (FIG. 2B),lowered
same,expression of CB1R gene,[2]; [6],reduced
same,expression of FAS gene,[2]; [6],reduced
same,expression of NAPE-PLD gene,[2]; [6],reduced
same,expression of SREBP1c gene,[2]; [6],reduced
same,protein expression of FAS,[2]; [6],reduced
same,protein expression of SREBP1c,[2]; [6],reduced
same,expression of DAGLα,hepatic stellate cells,inhibits
same,expression of DAGLβ,hepatic stellate cells,inhibits
same,expression of FAAH,hepatic stellate cells,inhibits
same,expression of NAPE-PLD,hepatic stellate cells,inhibits
same,size of liver,[3]; vs control group (FIG. 1A),significant decrease
same,weight of liver,[3]; vs control group (FIG. 1B),significant decrease
same,anticancer effect against glioblastoma,glioblastoma,anticancer effect
same,blood glucose level with time,[4],decrease
same,anticancer effect in breast cancer,[5],anticancer effect
